According to patent US7417026B2, “Mobilization of hematopoietic cells” (Children's Hospital Medical Center, priority 2003, dated 2008):

What was measured:
RhoA-F30L [1] = biological target: T1, RhoA-F30L (Homo sapiens, UniProt P61586, F30L); assay: Downregulation of RhoA-F30L biochemical activity by retrovirally expressed RhoGAP chimera; type: cell-based; conditions: for biochemical activity of F30LRhoA: high copy number retroviral vector SF91-EMCV-IRES-GFP
T1 construct: expressed in transfected cells
Description: (§1) Like other cases of retrovirus-based gene transfer approach, the copy number of the introduced RhoGAP-Rho chimeras in the host cells will likely to be important for the efficacy of their application.

RhoA-F30L [2] = biological target: T1, RhoA-F30L; assay: RhoA-F30L-induced transformation; type: cell-based; conditions: for RhoA-F30L-induced transformation: high copy number retroviral vector SF91-EMCV-IRES-GFP
Description: as §1

WT neutrophils [3] = conditions: 10 μM
Description: (§2) It was next determined whether, in a manner similar to HSC/P, p42/p44 MAPKs were regulated via Rac proteins in neutrophils.

WT neutrophils [4] = conditions: 10 μM; remark: listed apart in the source
Procedure: Neutrophil chemotaxis in response to 10 μM formyl-methionyl-leucyl-phenylalanine (fMLP) was examined in Boyden chamber assays.

WT neutrophils [5] = conditions: 10 μM; remark: listed apart in the source
Description: as §2

p42/p44 = conditions: neutrophils, 10 μM
Description: as §2

WT HSC/P cells [6] = assay: Apoptosis of HSC/P following SCF stimulation (Annexin-V); type: cell-based, mice; conditions: concentration not given
Description: By contrast, Rac2 appears to play no role in proliferation but regulated cell survival through the known anti-apoptotic protein Akt (Kennedy, et al. Genes Dev. 11, 701-13, 1997). Rac2 but not Rac1 deficiency was associated with increased frequency of both early (Annexin-V+) and late (Annexin V+/7AAD+) apoptotic cells (FIG. 2F) and expression of the Rac2 cDNA in Rac2−/− HSC/P led to a complete reversal of the apoptotic phenotype [4.4+0.8 vs. 6.6+1.3, vs. 3.1+0.7; % Annexin-V+ cells, WT vs. Rac2−/− vs. Rac−/− (Rac2+); p<0.01 Rac2−/− vs. Rac2−/− (Rac2+)]. Loss of both Rac1 and Rac2 activities was associated with a more severe apoptotic phenotype compared with deficiency of only Rac2 GTPase activity (FIG. 2D). […] The reduced Akt activation was close to normal in Rac1−/− cells.

WT HSC/P cells [7] = assay: Cell cycle analysis of HSC/P after SCF stimulation (cells in S+G2/M); type: cell-based, mice; conditions: 30 μM
Procedure: To further analyze the mechanism, by which Rac1 affects proliferation in primitive HSC/P cells, cell cycle analysis was performed after stimulation with 100 ng/ml SCF. […] In contrast, the number of Rac2−/− cells in S+G2/M phases was similar to WT cells. The delay in entry into S phase was significant by 24 hours after SCF addition and persisted at 48 hours. This defect in cell cycle progression appeared directly related to Rac1 deficiency, since expression of Rac1 protein using retrovirus-mediated gene transfer restored cycle progression in Rac1−/− cells [33+4 vs. 19+3 vs. 34+3; % cells in S+G2/M, WT vs. Rac1−/− vs. Rac1−/− (Rac1+), p<0.01 Rac1−/− vs. Rac1−/− (Rac1+)].

ERK = conditions: HSC/P cells, 30 μM
HSC/progenitor cells [8] = assay: Mobilization of progenitor cells into peripheral blood, Rac2-/- mice; type: in vivo; conditions: intraperitoneal injection, three doses
Procedure: In FIG. 5, NSC23776 or PBS as a control was administered by intraperitoneal injection to normal mice and mice with a genetic deficiency of Rac2 (Rac2−/− mice). At the indicated time points after injection, mice were bled and analyzed for the number of progenitor cells in the peripheral blood. Three doses of drug were administered. Each point represents samples from 6 mice, mean +/− SEM. For information on how to make and use NSC23776 and other small molecule inhibitors, see copending U.S. Provisional application 60/523,599, filed Nov. 20, 2003.

HSC/progenitor cells [9] = assay: Mobilization of progenitor cells into peripheral blood, normal mice; type: in vivo; conditions: intraperitoneal injection, three doses
Procedure: In FIG. 4, NSC23776, an inhibitor of GEF interaction with Rac proteins, or PBS as a control was administered by intraperitoneal injection to normal mice. At the indicated time points after injection, mice were bled and analyzed for the number of progenitor cells in the peripheral blood. Three doses of drug were administered. Each point represents samples from 6 mice, mean +/− SEM.

T1 sequence (P61586 whole entry F30L): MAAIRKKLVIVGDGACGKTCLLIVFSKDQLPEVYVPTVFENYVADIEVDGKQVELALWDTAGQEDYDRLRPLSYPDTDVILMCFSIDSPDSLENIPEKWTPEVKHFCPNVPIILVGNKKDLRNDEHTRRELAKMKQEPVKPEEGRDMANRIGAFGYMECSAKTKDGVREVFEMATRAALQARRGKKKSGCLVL

p190: GAP-containing protein fraction of human p190, the predominant GAP for RhoA, expressed alone
biochemical activity of F30LRhoA (RhoA-F30L [1]): did not affect
RhoA-F30L-induced transformation (RhoA-F30L [2]): did not affect

N#CC(=C(/N)Sc1ccccc1N)/C(C#N)=C(\N)Sc1ccccc1N [U0126]
cortical actin formation (WT neutrophils [3]): impaired cortical actin formation
cell migration (WT neutrophils [4]): significant decrease
percentage of NBT+ cells (WT neutrophils [5]): no change
phosphorylation of p42/p44 (p42/p44): abrogates
increase in apoptosis (WT HSC/P cells [6]): An increase in apoptosis was not seen
number of cells in S+G2/M (WT HSC/P cells [7]): significant reduction
ERK activation (ERK): inhibited

CCN(CC)CCCC(C)Nc1nc(C)cc(Nc2ccc3nc(C)cc(N)c3c2)n1 (stereo not drawn) [NSC23776]
mobilization of HSC/progenitor cells (HSC/progenitor cells [8]): additive effect
mobilization of HSC/progenitor cells (HSC/progenitor cells [9]): does indeed lead to mobilization

B1: p190-RhoA-C: p190GAP fused with the RhoA C-terminal sequence, expressed from a retroviral vector (protein)
chain: VPLTTVVTPEKPIPIFIERCIEYIEATGLSTEGIYRVSGNKSEMESLQRQFDQDHNLDLAEKDFTVNTVAGAMKSFFSELPDPLVPYSMQIDLVEAHKINDREQKLHALKEVLKKFPKENHEVFKYVISHLNRVSHNNKVNLMTSENLSICFWPTLMRPDFSSMDALTATRSYQTIIELFIQQCPFFFYNRPISEPPGAALAPLQPWHPLSPSSPLHLLPVSHHLPSHLLQPLSPQCSHCSPLSSKPNTRCEPPQPRKQENQLSSLQARRGKKKSGCLVL
modifications: chimeric fusion peptide/p190RhoGAP plus c-terminus tail section of the targeted GTPase
biochemical activity of RhoA-F30L (RhoA-F30L [1]; expression with MIEG3): insufficient
biochemical activity of F30LRhoA (RhoA-F30L [1]): specifically decrease
transforming activity of RhoA-F30L (RhoA-F30L [2]; expression with MIEG3): insufficient
RhoA-F30L-induced transformation (RhoA-F30L [2]): specifically decrease
